The text below walks through data of patent US20170165317A1, “METHOD FOR MITIGATING OR ALLEVIATING SYNAPTIC AND COGNITIVE DEFICITS” (Trustees of Dartmouth College, priority 2013, published 2017).

Assay [1] concerns APP/PS1 mice. In words: Contextual fear conditioning after i.c.v. infusion. The note with it: VO-OHpic infusion. Format: in vivo, mouse. Here is the method: APP/PS1 and wild-type mice were anesthetized with isofluorane, and i.c.v. delivery cannulas (brain alzet kit III) were implanted with a stereotaxic frame (KOPF Instruments) at the following coordinates according to the bregma: AP, −0.5 mm; ML, 1 mm; and DV, −2.2 mm. Osmotic minipumps (Alzet) were filled with artificial cerebrospinal fluid (aCSF) with or without PTEN inhibitor VO-OHpic (2.5 μM) and equilibrated in 0.9% NaCl at 37° C. for 48 hours. They were attached to the i.c.v. cannula tubing and subcutaneously implanted at the back. After 21 days, behavioral testing was started as described herein. […]
Fear conditioning. […] The animals' behavior was scored by an observer blind to the treatment condition. Using a time-sampling procedure every 2 seconds, each mouse was scored blindly as either freezing or active at the instant the sample was taken. […]
(§1) It was posited that if early Aβ-induced cognitive impairment results from a general synaptic bias toward LTD events (Selkoe (2002) Science 298:789-791), dampening this form of synaptic plasticity might prevent cognitive decay. Therefore, it was determined whether in vivo inhibition of PTEN, a lipid phosphatase that is involved in LTD (Jurado, et al. (2010) EMBO J. 29:2827-2840), would rescue cognitive deficits in APP/PS1 mice. […]

For assay [2], the system named is APP/PS1 mice. In words: Novel object location task after i.c.v. infusion by osmotic minipump. Format: in vivo, mouse. The conditions noted are these: VO-OHpic infused 3-4 weeks into brain ventricles. Here is the method:
APP/PS1 and wild-type mice were anesthetized with isofluorane, and i.c.v. delivery cannulas (brain alzet kit III) were implanted with a stereotaxic frame (KOPF Instruments) at the following coordinates according to the bregma: AP, −0.5 mm; ML, 1 mm; and DV, −2.2 mm. Osmotic minipumps (Alzet) were filled with artificial cerebrospinal fluid (aCSF) with or without PTEN inhibitor VO-OHpic (2.5 μM) and equilibrated in 0.9% NaCl at 37° C. for 48 hours. They were attached to the i.c.v. cannula tubing and subcutaneously implanted at the back. After 21 days, behavioral testing was started as described herein. One month after implantation, mice were sacrificed and the brains were sliced stained with Nissl to verify the location of the cannula. Animal manipulation and data analysis was carried out blind with respect to genotype and treatment.
Novel-Object Location. This assay was chosen because it is not intrinsically stressful. This factor, in mice, crucially affects cognitive performance in other spatial learning paradigms (e.g., Morris water maze). The memory tests were composed of three phases—“habituation”, “sample” and “choice” trials. Mice were first habituated individually to an empty open-field box (35×35×15 high cm) for 30 minutes. A sample trial (object exposure) consisted of placing a mouse into the test box which contained two identical objects. […] A recognition index was calculated by dividing the total time spent exploring the displaced object by the total time spent exploring both objects during the test session. […]
as §1

Consider `O=C(O)c1ncccc1O.O=C(O)c1ncccc1O.[O]=[V][O-]` [VO-OHpic], for which the “contextual fear conditioning performance (percentage freezing to the context)” value in the assay on APP/PS1 mice [1] (APP/PS1 mice, P=0.002) was “significantly improved their performance”; in the assay with APP/PS1 mice [1] (wild-type mice) it was “without altering”. The “performance in novel object location task (recognition index)” value with APP/PS1 mice [2] (APP/PS1 mice, P=0.02 vs vehicle-infused APP/PS1, recognition index similar to wild-type) was “significant improvement”; in the assay with APP/PS1 mice [2] (wild-type mice), “did not affect the performance”.
